How the values were obtained:
[1] = SOLO I Phase 3 trial, safety assessments (safety population); assay type: in vivo, human; conditions: for Patients who died during the study: all determined unrelated to study drug; for Infusion site reaction AEs / Pruritus AEs: post-hoc analysis; for Incidence of diarrhea / Incidence of headache / Incidence of nausea / Incidence of vomiting: safety population
From the text: The study design was consistent with current guidelines from FDA (U.S. Food and Drug Administration. Guidance for Industry Acute Bacterial Skin and Skin Structure Infections: Developing Drugs for Treatment (DRAFT GUIDANCE). Available via Internet at the URL containing: fda.gov/downloads/Drugs/GuidanceComplianceRegulatoryInformation/Guidances/ucm071185.p df) and EMA (European Medicines Agency Committee for Medicinal Products for Human Use. Addendum to the note for guidance on evaluation of medicinal products indicated for treatment of bacterial infections (CHMP/EWP/558/95 REV 2) to address indication-specific clinical data (draft). 2012. Available via Internet at the URL containing: ema.europa.eu/docs/en_GB/document_library/Scientific_guideline/2012/07/WC500129443.pdf) and Foundation for National Institutes of Health guidance was considered for analyses (Talbot G H etl. Clin Infect Dis. 2012. 55(8):1114-1121). The protocol was approved by institutional review boards/ethics committees and all patients provided written informed consent. The study was conducted from January 2011 through October 2012 at 46 study centers in Mexico, Spain, Germany, Romania, Russia, Ukraine, Israel, India, and the United States. […] Aztreonam and metronidazole were permitted for gram-negative and anaerobic cover, respectively.
Safety assessments (Safety Population) included vital signs, electrocardiogram (ECG), clinical chemistry and hematology parameters, reporting of adverse events (AEs) and serious adverse events (SAEs). Treatment-emergent adverse events (TEAEs) were defined as AEs with onset or worsening severity at or after the first dose of study drug through the Safety Follow-up Visit (Day 60+7 days).
For safety assessments, descriptive analyses were performed in the safety population for all safety parameters by treatment group.
The intent-to-treat (ITT) population included all patients randomized into the study. The modified intent-to-treat (mITT) was the primary population for all the efficacy analyses and included all randomized patients who received any study drug. The clinically evaluable (CE) population consisted of all mITT patients who met the inclusion/exclusion criteria, received the full-course of randomized study treatment (for a minimum of 7 days), and had investigator assessment for clinical cure at PTE. The CE population was used to confirm the efficacy analyses. The microbiologically ITT (MicroITT) population consisted of all mITT patients with baseline gram-positive pathogen(s) known to cause ABSSSI and it was used for the secondary efficacy analyses. The microbiologically evaluable (MicroE) population was used to confirm the secondary efficacy analyses and consisted of all patients who were in both the MicroITT and CE populations. The safety population was the primary population for all the safety analyses, and consisted of all patients who were dosed with study drug, irrespective of randomization. Treatment classification was based on the actual treatment received.

[2] = SOLO II Phase 3 trial, safety; assay type: in vivo, human; conditions: for Patients reported to experience at least one adverse event: up to 60 days after treatment
From the text: Safety profiles, measured at any point up to 60 days after treatment, were similar across treatment groups in SOLO II.

[3] = SOLO I and SOLO II combined, safety; assay type: in vivo, human; conditions: for Treatment emergent adverse events considered by investigators as related to study drug: p=0.002; for Patients reported to experience at least one adverse event: safety population
[4] = Predicted free peak and free trough levels in plasma; assay type: in vivo; conditions: non-protein bound drug, representative human dose: oritavancin 1200 mg, vancomycin 1000 mg, daptomycin 4 mg/kg, linezolid 500 mg
Method: ORI concentrations were chosen to approximate free peak (fCmax; defined as the peak concentration of non-protein bound drug) and free trough (fCmin; defined for ORI as the concentration of non-protein bound drug at 24 h) levels in plasma following administration of a 1200 mg dose (Belley et al., 2013 Table 10). ORI protein binding is estimated at approximately 85% in serum from nonclinical species and humans (Arhin et al., 2010). Doubling dilution concentrations of comparator agents were likewise chosen to approximate their fCmax and fCmin levels in plasma when administered at approved dosages for complicated skin and skin structure infections, using pharmacokinetic data and protein binding values from their respective package inserts (DAP [Cubicin®]; LZD [Zyvox®]; VAN [Vancocin®]; Table 3).

[5] = cited from earlier work; for Free Fraction: protein binding values from Arhin et al., 2010 (oritavancin) and package inserts (comparators)

SMILES | Cellulitis SAEs considered new events [1] | Discontinuation of study drug due to cellulitis [1] | Frequency of SAEs [1] | Histamine-like reactions (Red Man syndrome) [1] | Proportion of patients experiencing a TEAE that led to discontinuation of the study drug [1] | Skin and subcutaneous tissue adverse events [1] | Patients who died during the study [1] | Infusion site reaction AEs [1] | Pruritus AEs [1] | Incidence of diarrhea [1] | Incidence of headache [1] | Incidence of nausea [1] | Incidence of vomiting [1] | Treatment emergent adverse events considered by investigators as related to study drug [2] | Patients reported to experience at least one adverse event [2] | Patients with adverse events leading to study drug discontinuation [3] | Treatment emergent adverse events considered by investigators as related to study drug [3] | Patients reported to experience at least one adverse event [3] | Doubling Dilution Concentration Representing Predicted fCmax [4] | Free Fraction [5] | other results
CN[C@H](CC(C)C)C(=O)N[C@H]1C(=O)N[C@@H](CC(N)=O)C(=O)N[C@H]2C(=O)N[C@H]3C(=O)N[C@H](C(=O)N[C@H](C(=O)O)c4cc(O)cc(O)c4-c4cc3ccc4O)[C@H](O[C@H]3C[C@](C)(N)[C@@H](O)[C@H](C)O3)c3ccc(c(Cl)c3)Oc3cc2cc(c3O[C@@H]2O[C@H](CO)[C@@H](O)[C@H](O)[C@H]2O[C@H]2C[C@](C)(NCc3ccc(-c4ccc(Cl)cc4)cc3)[C@@H](O)[C@H](C)O2)Oc2ccc(cc2Cl)[C@H]1O [Oritavancin, N^DISACC-(4-(4-chlorophenyl)benzyl)A82846B] | 2 | 2 patients | 7.4% | No histamine-like reactions occurred | 3.8% | 11.6% | one | 4.0% | 3.4% | 4.9% | 7.2% | 11.0% | 4.9% | 21.7% | 50.9% | 3.7% | 22.2% | 55.3% | 16 mg/L | 0.15 | Overall safety and tolerability ([1]; single 1200 mg dose): safe and well-tolerated; Protein binding ([5]; serum from nonclinical species and humans (Arhin et al., 2010)): approximately 85%
CN[C@H](CC(C)C)C(=O)N[C@H]1C(=O)N[C@@H](CC(N)=O)C(=O)N[C@H]2C(=O)N[C@H]3C(=O)N[C@H](C(=O)N[C@H](C(=O)O)c4cc(O)cc(O)c4-c4cc3ccc4O)[C@H](O)c3ccc(c(Cl)c3)Oc3cc2cc(c3O[C@@H]2O[C@H](CO)[C@@H](O)[C@H](O)[C@H]2O[C@H]2C[C@](C)(N)[C@H](O)[C@H](C)O2)Oc2ccc(cc2Cl)[C@H]1O [Vancomycin, vancomycin] | 4 | 3 patients | 7.3% | 2 patients | 5.8% | 19.1% | two | 7.1% | 9.1% | 3.5% | 7.9% | 8.9% | 3.7% | 25.5% | 50.2% | 4.2% | 28.4% | 56.9% | 16 mg/L | 0.54 | Discontinuation of study drug due to drug hypersensitivity [1]: 2 patients; Discontinuation of study drug due to hypersensitivity [1]: 5 patients; Discontinuation of study drug due to pruritus [1]: 2 patients; Discontinuation of study drug due to rash [1]: 2 patients; Discontinuation of study drug due to sepsis [1]: 2 patients; Discontinuation of study drug due to skin bacterial infection [1]: 2 patients
